In ChEMBL document CHEMBL4184209, “Identification and initial optimization of inhibitors of Clostridium difficile (C. difficile) toxin B (TcdB)” (Bioorg Med Chem Lett, 2018):
Activity calls are given as the source filed them.

Tests used:
Bacteroides fragilis = test: Effect on growth of Bacteroides fragilis at 0.5 to 100 uM incubated for 48 hrs under anaerobic conditions by spectrophotometry; format: organism-based
Clostridioides difficile = test: Effect on growth of Clostridium difficile at 0.5 to 100 uM incubated for 24 hrs under anaerobic conditions by spectrophotometry; format: functional, organism-based
[1] = tested on: Limosilactobacillus reuteri; test: Effect on growth of Lactobacillus reuteri at 0.5 to 100 uM incubated for 24 hrs under anaerobic conditions by spectrophotometry; format: organism-based
Toxin B [2] = molecular target: T1, Toxin B (Clostridioides difficile, UniProt P18177); test: Inhibition of C-terminal 6-His tagged recombinant Clostridium difficile toxin B catalytic fragment (Met1 to Leu543 residues) assessed as reduction in glucosyltransferase domain UDP-glucose hydrolysis activity using UDP-glucose and ADP Alexa633 tracer incubated fore 3 hrs by fluorescence polarization assay
Bifidobacterium longum = test: Effect on growth of Bifidobacterium longum at 0.5 to 100 uM incubated for 24 hrs under anaerobic conditions by spectrophotometry; format: organism-based
[3] = Stability in mouse liver microsomes assessed as parent compound remaining level incubated for 15 mins; format: ADME, microsome; conditions: read-out: Stability
[4] = Stability in human liver microsomes assessed as parent compound remaining level incubated for 15 mins; format: ADME, microsome; conditions: read-out: Stability
Toxin B [5] = molecular target: T1, Toxin B; test: Inhibition of Clostridium difficile toxin B […] assessed as reduction in caspase 3/7 activation pre-incubated for 1 hr before TcdB addition by luminescence based assay1; format: cell-based

T1 sequence (P18177 whole entry, the tested form may be a part): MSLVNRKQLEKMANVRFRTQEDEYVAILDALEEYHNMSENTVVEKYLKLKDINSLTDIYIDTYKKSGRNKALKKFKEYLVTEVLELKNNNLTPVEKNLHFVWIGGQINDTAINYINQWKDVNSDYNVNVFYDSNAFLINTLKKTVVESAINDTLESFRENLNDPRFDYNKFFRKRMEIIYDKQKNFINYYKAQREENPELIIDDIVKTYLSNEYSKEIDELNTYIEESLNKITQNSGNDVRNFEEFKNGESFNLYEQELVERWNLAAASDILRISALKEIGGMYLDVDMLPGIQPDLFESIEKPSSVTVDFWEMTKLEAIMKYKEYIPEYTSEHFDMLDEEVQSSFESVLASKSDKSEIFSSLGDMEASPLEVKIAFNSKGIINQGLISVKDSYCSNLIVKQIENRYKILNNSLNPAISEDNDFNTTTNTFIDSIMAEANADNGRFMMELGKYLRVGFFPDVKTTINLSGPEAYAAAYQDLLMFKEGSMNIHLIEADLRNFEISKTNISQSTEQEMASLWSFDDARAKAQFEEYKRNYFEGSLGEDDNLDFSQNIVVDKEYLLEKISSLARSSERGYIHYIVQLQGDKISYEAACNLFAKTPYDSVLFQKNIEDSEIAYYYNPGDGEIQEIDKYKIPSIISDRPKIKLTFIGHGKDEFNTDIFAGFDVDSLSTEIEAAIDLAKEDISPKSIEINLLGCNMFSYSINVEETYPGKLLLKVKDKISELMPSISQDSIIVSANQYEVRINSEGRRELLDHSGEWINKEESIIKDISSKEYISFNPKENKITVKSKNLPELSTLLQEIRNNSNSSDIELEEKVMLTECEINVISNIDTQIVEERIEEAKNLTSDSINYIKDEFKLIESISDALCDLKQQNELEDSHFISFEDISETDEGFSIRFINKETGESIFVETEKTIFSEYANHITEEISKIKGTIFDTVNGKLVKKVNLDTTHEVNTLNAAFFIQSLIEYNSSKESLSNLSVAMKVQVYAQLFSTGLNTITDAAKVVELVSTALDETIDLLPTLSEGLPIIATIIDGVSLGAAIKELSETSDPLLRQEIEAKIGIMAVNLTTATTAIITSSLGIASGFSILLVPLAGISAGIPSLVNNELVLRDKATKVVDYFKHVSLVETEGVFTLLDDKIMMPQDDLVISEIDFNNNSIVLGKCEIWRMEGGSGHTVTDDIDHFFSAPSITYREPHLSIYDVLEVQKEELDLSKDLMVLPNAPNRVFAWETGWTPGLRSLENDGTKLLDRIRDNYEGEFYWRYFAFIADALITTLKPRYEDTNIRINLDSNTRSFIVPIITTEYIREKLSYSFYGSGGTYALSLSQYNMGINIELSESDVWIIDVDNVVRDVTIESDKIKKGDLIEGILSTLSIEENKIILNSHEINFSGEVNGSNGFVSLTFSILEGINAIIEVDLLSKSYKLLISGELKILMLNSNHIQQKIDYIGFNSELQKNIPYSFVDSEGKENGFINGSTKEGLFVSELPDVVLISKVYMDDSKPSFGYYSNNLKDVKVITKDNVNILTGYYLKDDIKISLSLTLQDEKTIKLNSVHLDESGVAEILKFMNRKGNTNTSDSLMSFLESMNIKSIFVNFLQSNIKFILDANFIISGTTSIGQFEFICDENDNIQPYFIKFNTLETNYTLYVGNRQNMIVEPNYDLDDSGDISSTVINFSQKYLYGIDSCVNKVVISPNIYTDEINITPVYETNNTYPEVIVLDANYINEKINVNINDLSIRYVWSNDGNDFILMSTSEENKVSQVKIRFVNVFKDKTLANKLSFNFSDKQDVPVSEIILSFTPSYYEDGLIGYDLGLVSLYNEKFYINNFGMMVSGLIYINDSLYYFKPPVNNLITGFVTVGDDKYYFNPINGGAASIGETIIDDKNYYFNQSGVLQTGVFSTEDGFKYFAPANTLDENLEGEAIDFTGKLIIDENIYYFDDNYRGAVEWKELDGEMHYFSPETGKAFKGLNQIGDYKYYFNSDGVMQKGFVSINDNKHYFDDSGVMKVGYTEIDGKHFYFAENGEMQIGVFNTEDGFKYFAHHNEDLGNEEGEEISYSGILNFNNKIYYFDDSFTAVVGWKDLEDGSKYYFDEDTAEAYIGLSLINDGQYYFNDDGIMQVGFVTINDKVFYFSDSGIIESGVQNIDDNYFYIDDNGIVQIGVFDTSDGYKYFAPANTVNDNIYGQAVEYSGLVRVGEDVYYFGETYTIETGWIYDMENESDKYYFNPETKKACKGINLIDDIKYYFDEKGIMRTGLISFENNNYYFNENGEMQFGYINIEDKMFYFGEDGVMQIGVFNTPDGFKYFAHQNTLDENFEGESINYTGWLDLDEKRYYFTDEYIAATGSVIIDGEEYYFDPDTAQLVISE

| SMILES | Activity (Bacteroides fragilis) | Activity (Clostridioides difficile) | Activity [1] | IC50 (Toxin B [2]) | Activity (Bifidobacterium longum) | remaining at 0.25 h [3] | remaining at 0.25 h [4] | IC50 (Toxin B [5]) |
| --- | --- | --- | --- | --- | --- | --- | --- | --- |
| O=C(O)c1ccc(CN2C(=O)c3ccc(Cl)cc3NC(=O)[C@H]2Cc2cccc(Cl)c2)cc1 | Non-Toxic | inactive | Non-Toxic | 1.6 µM | Non-Toxic |  |  |  |
| CC(C)C[C@@H]1C(=O)Nc2cc(Cl)ccc2C(=O)N1Cc1ccc(C(=O)O)cc1 | Non-Toxic | inactive | Non-Toxic | > 80 µM | Non-Toxic |  |  |  |
| O=C(O)c1ccc(CN2C(=O)c3ccc(Cl)cc3NC(=O)[C@H]2Cc2ccccn2)cc1 | Non-Toxic | inactive | Non-Toxic | 0.24 µM | Non-Toxic |  |  |  |
| O=C(O)c1ccc(CN2C(=O)c3ccc(Cl)cc3NC(=O)[C@@H]2Cc2ccc(Cl)c(Cl)c2)cc1 | Non-Toxic | inactive | Non-Toxic | 2.1 µM | Non-Toxic |  |  |  |
| Cc1cccc(C[C@@H]2C(=O)Nc3cc(Cl)ccc3C(=O)N2Cc2ccc(C(=O)O)cc2)c1 | Non-Toxic | inactive | Non-Toxic | 4.4 µM | Non-Toxic |  |  |  |
| C[C@@H]1C(=O)Nc2cc(Cl)ccc2C(=O)N1Cc1ccc(C(=O)O)cc1 | Non-Toxic | inactive | Non-Toxic | 21 µM | Non-Toxic |  |  |  |
| Cc1ccc2c(c1)NC(=O)[C@@H](Cc1ccc(Cl)c(Cl)c1)N(Cc1ccc(C(=O)O)cc1)C2=O | Non-Toxic | inactive | Non-Toxic | 12 µM | Non-Toxic |  |  |  |
| O=C(O)c1ccc(CN2C(=O)c3ccc(Cl)cc3NC(=O)[C@H]2Cc2ccccc2Cl)cc1 | Non-Toxic | inactive | Non-Toxic | 2.3 µM | Non-Toxic |  |  |  |
| O=C(O)c1ccc(CN2C(=O)c3ccc(Cl)cc3NC(=O)[C@H]2Cc2ccc(O)cc2)cc1 | Non-Toxic | inactive | Non-Toxic | 2 µM | Non-Toxic |  |  |  |
| COC(=O)c1ccc(CN2C(=O)c3ccc(Cl)cc3NC(=O)[C@H]2Cc2cccnc2)cc1 | Non-Toxic | inactive | Non-Toxic | > 80 µM | Non-Toxic |  |  |  |
| O=C(O)c1ccc(CN2C(=O)c3ccc(Cl)cc3NC(=O)[C@@H]2Cc2ccccn2)cc1 | Non-Toxic | inactive | Non-Toxic | 0.5 µM | Non-Toxic |  |  |  |
| O=C(O)c1ccc(CN2C(=O)c3ccc(Cl)cc3NC(=O)[C@H]2Cc2ccccc2)cc1 | Non-Toxic | inactive | Non-Toxic | 6.3 µM | Non-Toxic |  |  |  |
| O=C(O)c1ccc(CN2C(=O)c3cc(Cl)ccc3NC(=O)[C@H]2Cc2cccnc2)cc1 | Non-Toxic | inactive | Non-Toxic | > 80 µM | Non-Toxic |  |  |  |
| O=C(Nc1ncccn1)c1ccc(CN2C(=O)c3ccc(Cl)cc3NC(=O)[C@H]2Cc2cccnc2)cc1 | Non-Toxic | inactive | Non-Toxic | 0.018 µM | Non-Toxic | 88% | 100% |  |
| O=C(Nc1ccccc1)c1ccc(CN2C(=O)c3ccc(Cl)cc3NC(=O)[C@H]2Cc2cccnc2)cc1 | Non-Toxic | inactive | Non-Toxic | 22 µM | Non-Toxic |  |  |  |
| O=C(Nc1ccccn1)c1ccc(CN2C(=O)c3ccc(Cl)cc3NC(=O)[C@H]2Cc2ccccn2)cc1 | Non-Toxic | inactive | Non-Toxic | 0.003 µM | Non-Toxic | 53% | 99% | 230 nM |
| Cc1ccc(C[C@@H]2C(=O)Nc3cc(Cl)ccc3C(=O)N2Cc2ccc(C(=O)O)cc2)cc1 | Non-Toxic | inactive | Non-Toxic | 32 µM | Non-Toxic |  |  |  |
| O=C(O)c1ccc(CN2C(=O)c3ccc(Cl)cc3NC(=O)[C@H]2c2ccccc2)cc1 | Non-Toxic | inactive | Non-Toxic | > 80 µM | Non-Toxic |  |  |  |
| O=C(O)c1ccc(CN2C(=O)c3ccc(Cl)cc3NC(=O)[C@H]2Cc2ccncc2)cc1 | Non-Toxic | inactive | Non-Toxic | 18 µM | Non-Toxic |  |  |  |

| SMILES | Activity (Bacteroides fragilis) | Activity (Clostridioides difficile) | Activity [1] | IC50 (Toxin B [2]) | Activity (Bifidobacterium longum) | remaining at 0.25 h [3] | remaining at 0.25 h [4] | IC50 (Toxin B [5]) |
| --- | --- | --- | --- | --- | --- | --- | --- | --- |
| O=C(O)c1ccc(CN2C(=O)c3ccccc3NC(=O)[C@H]2Cc2cccnc2)cc1 | Non-Toxic | inactive | Non-Toxic | 46 µM | Non-Toxic |  |  |  |
| O=C(O)c1ccc(CN2C(=O)c3ccc(Cl)cc3NC(=O)[C@H]2CC2CCCCC2)cc1 | Non-Toxic | inactive | Non-Toxic | 84 µM | Non-Toxic |  |  |  |
| O=C(Nc1cccnc1)c1ccc(CN2C(=O)c3ccc(Cl)cc3NC(=O)[C@H]2Cc2cccnc2)cc1 | Non-Toxic | inactive | Non-Toxic | > 80 µM | Non-Toxic |  |  |  |
| O=C(O)c1ccc(CN2C(=O)c3ccc(Cl)cc3NC(=O)[C@H]2Cc2ccccc2F)cc1 | Non-Toxic | inactive | Non-Toxic | 30 µM | Non-Toxic |  |  |  |
| COc1ccc2c(c1)NC(=O)[C@@H](Cc1cccnc1)N(Cc1ccc(C(=O)O)cc1)C2=O | Non-Toxic | inactive | Non-Toxic | 2.5 µM | Non-Toxic |  |  |  |
| O=C(O)c1ccc(CN2C(=O)c3ccc(F)cc3NC(=O)[C@H]2Cc2cccnc2)cc1 | Non-Toxic | inactive | Non-Toxic | 8.6 µM | Non-Toxic |  |  |  |
| O=C(O)c1ccc(CN2C(=O)c3ccc(Cl)cc3NC(=O)[C@H]2Cc2ccc(Cl)cc2)cc1 | Non-Toxic | inactive | Non-Toxic | 17 µM | Non-Toxic |  |  |  |
| O=C(O)c1ccc(CN2C(=O)c3ccc(Cl)cc3NC(=O)[C@H]2CCc2ccccc2)cc1 | Non-Toxic | inactive | Non-Toxic | 23 µM | Non-Toxic |  |  |  |
| O=C(O)c1ccc(CN2C(=O)c3ccc(Cl)cc3NC(=O)[C@H]2Cc2cccnc2)cc1 | Non-Toxic | inactive | Non-Toxic | 0.77 µM | Non-Toxic |  |  |  |
| O=C(O)c1ccc(CN2C(=O)c3cccc(Cl)c3NC(=O)[C@H]2Cc2cccnc2)cc1 | Non-Toxic | inactive | Non-Toxic | 69 µM | Non-Toxic |  |  |  |
| O=C(O)c1ccc(CN2C(=O)c3ccccc3NC(=O)[C@H]2Cc2ccc(Cl)c(Cl)c2)cc1 | Non-Toxic | inactive | Non-Toxic | 2.1 µM | Non-Toxic |  |  |  |
| CN1C(=O)[C@@H](Cc2cccnc2)N(Cc2ccc(C(=O)O)cc2)C(=O)c2ccc(Cl)cc21 | Non-Toxic | inactive | Non-Toxic | > 80 µM | Non-Toxic |  |  |  |
| O=C(O)c1ccc(CN2C(=O)c3ccc(Cl)cc3NC(=O)[C@@H]2Cc2ccc(O)cc2)cc1 | Non-Toxic | inactive | Non-Toxic | 16 µM | Non-Toxic |  |  |  |
| O=C(O)c1ccc(CN2C(=O)c3ccc(Cl)cc3NC(=O)C2Cc2cnccn2)cc1 (racemic) | Non-Toxic | inactive | Non-Toxic | 3.1 µM | Non-Toxic |  |  |  |
| O=C(O)c1ccc(CN2C(=O)c3ccc(Cl)cc3NC(=O)[C@H]2Cc2nccs2)cc1 | Non-Toxic | inactive | Non-Toxic | 2.3 µM | Non-Toxic |  |  |  |
| N#Cc1cccc(C[C@@H]2C(=O)Nc3cc(Cl)ccc3C(=O)N2Cc2ccc(C(=O)O)cc2)c1 | Non-Toxic | inactive | Non-Toxic | 6.2 µM | Non-Toxic |  |  |  |
| NC(=O)c1ccc(CN2C(=O)c3ccc(Cl)cc3NC(=O)[C@@H]2Cc2ccc(Cl)c(Cl)c2)cc1 | Non-Toxic | inactive | Non-Toxic | 16 µM | Non-Toxic |  |  |  |
| O=C(Nc1ccncc1)c1ccc(CN2C(=O)c3ccc(Cl)cc3NC(=O)[C@H]2Cc2cccnc2)cc1 | Non-Toxic | inactive | Non-Toxic | > 80 µM | Non-Toxic |  |  |  |
| Cc1ccccc1C[C@@H]1C(=O)Nc2cc(Cl)ccc2C(=O)N1Cc1ccc(C(=O)O)cc1 | Non-Toxic | inactive | Non-Toxic | 3.9 µM | Non-Toxic |  |  |  |
